Source: patent US6737383B1, “Herbicidal oxadiazolidines” (priority 1999, dated 2004)

Assays:
velvetleaf = assay: Test B pre/postemergence velvetleaf; type: in vivo, Abutilon theophrasti
Method in brief: (§1)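 Response is a visual 0-to-10 score relative to untreated plants, where 0 means no effect and 10 means complete control, taken twelve to sixteen days after application. Treatments went onto soil at planting and onto foliage of 1- to 4-leaf plants, using a surfactant-containing non-phytotoxic solvent.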

rape = assay: Test B pre/postemergence rape; type: in vivo, Brassica napus
Method in brief: as §1

smallflower flatsedge = assay: Test B flood test smallflower flatsedge; type: in vivo, Cyperus difformis
Method in brief: (§2)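 Flood test on plants grown to the 2-leaf stage; treated plants kept in greenhouse twelve to sixteen days, then visually rated against controls on a 0 (no effect) to 10 (complete control) scale.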

wild oat = assay: Test B pre/postemergence wild oat; type: in vivo, Avena fatua
Method in brief: as §1

morningglory = assay: Test B pre/postemergence morningglory; type: in vivo, Ipomoea hederacea
Method in brief: as §1

wheat = assay: Test B pre/postemergence wheat; type: in vivo, Triticum aestivum
Method in brief: as §1

soybean = assay: Test B pre/postemergence soybean; type: in vivo, Glycine max
Method in brief: as §1

bedstraw = assay: Test B pre/postemergence bedstraw; type: in vivo, Galium aparine
Method in brief: as §1

purple nutsedge = assay: Test B pre/postemergence purple nutsedge; type: in vivo, Cyperus rotundus
Method in brief: as §1

duck salad = assay: Test B flood test duck salad; type: in vivo, Heteranthera limosa
Method in brief: as §2

crabgrass = assay: Test B pre/postemergence crabgrass; type: in vivo, Digitaria sanguinalis
Method in brief: as §1

rice = assay: Test B flood test rice; type: in vivo, Oryza sativa
Method in brief: as §2

giant foxtail = assay: Test B pre/postemergence giant foxtail; type: in vivo, Setaria faberii
Method in brief: as §1

blackgrass = assay: Test B pre/postemergence blackgrass; type: in vivo, Alopecurus myosuroides
Method in brief: as §1

corn = assay: Test B pre/postemergence corn; type: in vivo, Zea mays
Method in brief: as §1

surinam grass = assay: Test B pre/postemergence surinam grass; type: in vivo, Brachiaria decumbens
Method in brief: as §1

[1] = Postemergence, Rate 31 g/ha, visual rating, scale 0 to 10 (0 no effect, 10 complete control)
[2] = Preemergence, Rate 31 g/ha, visual rating, scale 0 to 10 (0 no effect, 10 complete control)
[3] = Preemergence, Rate 62 g/ha, scale of 0 to 10 where 0 is no effect and 10 is complete control
[4] = Preemergence, Rate 250 g/ha, scale of 0 to 10 where 0 is no effect and 10 is complete control
[5] = Rate 62 g/ha, Postemergence, scale 0 to 10 (0 no effect, 10 complete control)
[6] = Rate 125 g/ha, Postemergence, scale of 0 to 10 where 0 is no effect and 10 is complete control
[7] = Rate 125 g/ha, Preemergence, scale of 0 to 10 where 0 is no effect and 10 is complete control
[8] = Rate 250 g/ha, Postemergence, scale of 0 to 10 where 0 is no effect and 10 is complete control
[9] = Rate 31 g/ha, Pre-emergence section (flood test species), scale 0 to 10
[10] = Rate 62 g/ha, headed Pre-emergence (flood test species), scale 0 to 10 (0 no effect, 10 complete control)
[11] = Rate 125 g/ha, Pre-emergence, flood test species, scale 0 to 10 where 0 is no effect and 10 is complete control
[12] = Rate 250 g/ha, Pre-emergence, flood-test species, scale 0 to 10, 0 is no effect, 10 is complete control

For `CC(C)N(C(=O)n1oc(=O)n(CCCCF)c1=O)c1ccc(F)cc1` [Compound 289], the “Velvetleaf plant response rating” value (velvetleaf; [1]) was 0, the “Velvetleaf plant response rating” value (velvetleaf; [2]) was 0 and the “Velvetleaf plant response rating” value (velvetleaf; [3]) was 3. For the same compound, the “Velvetleaf plant response rating” value (velvetleaf; [4]) was 7, the “Velvetleaf plant response rating” value (velvetleaf; [5]) was 0 and the “Velvetleaf plant response rating” value (velvetleaf; [6]) was 0. The “Velvetleaf plant response rating” value (velvetleaf; [7]) was 6, the “Plant response rating, Velvetleaf” value (velvetleaf; [8]) was 3 and the “Rape plant response rating” value (rape; [1]) was 0. The “Rape plant response rating” value (rape; [2]) was 0, the “Rape plant response rating” value (rape; [3]) was 0 and the “Rape plant response rating” value (rape; [4]) was 10. The “Rape plant response rating” value (rape; [5]) was 0, the “Rape plant response rating” value (rape; [6]) was 2 and the “Rape plant response rating” value (rape; [7]) was 8. The “Plant response rating, Rape” value (rape; [8]) was 2, the “S. Flatsedge plant response rating” value (smallflower flatsedge; [9]) was 0 and the “S. Flatsedge plant response rating” value (smallflower flatsedge; [10]) was 0. The “S. Flatsedge plant response rating” value (smallflower flatsedge; [11]) was 0, the “S. Flatsedge plant response rating” value (smallflower flatsedge; [12]) was 0 and the “Wild oats plant response rating” value (wild oat; [1]) was 0. For the same compound, the “Wild oats plant response rating” value (wild oat; [2]) was 0, the “Wild oats plant response rating” value (wild oat; [3]) was 1 and the “Wild oats plant response rating” value (wild oat; [4]) was 8. For the same compound, the “Wild oats plant response rating” value (wild oat; [5]) was 0, the “Wild oats plant response rating” value (wild oat; [6]) was 3 and the “Plant response rating, Wild oats” value (wild oat; [8]) was 3. For the same compound, the “Morningglory plant response rating” value (morningglory; [1]) was 2, the “Morningglory plant response rating” value (morningglory; [2]) was 0 and the “Morningglory plant response rating” value (morningglory; [3]) was 0. The “Morningglory plant response rating” value (morningglory; [4]) was 0, the “Morningglory plant response rating” value (morningglory; [5]) was 3 and the “Morningglory plant response rating” value (morningglory; [6]) was 6. For the same compound, the “Morningglory plant response rating” value (morningglory; [7]) was 0, the “Plant response rating, Morningglory” value (morningglory; [8]) was 8 and the “Wheat plant response rating” value (wheat; [1]) was 0. For the same compound, the “Wheat plant response rating” value (wheat; [2]) was 0, the “Wheat plant response rating” value (wheat; [3]) was 0 and the “Wheat plant response rating” value (wheat; [4]) was 2. For the same compound, the “Wheat plant response rating” value (wheat; [5]) was 2, the “Wheat plant response rating” value (wheat; [6]) was 5 and the “Wheat plant response rating” value (wheat; [7]) was 2. The “Plant response rating, Wheat” value (wheat; [8]) was 7, the “Soybean plant response rating” value (soybean; [1]) was 0 and the “Soybean plant response rating” value (soybean; [2]) was 0. For the same compound, the “Soybean plant response rating” value (soybean; [3]) was 0, the “Soybean plant response rating” value (soybean; [4]) was 0 and the “Soybean plant response rating” value (soybean; [5]) was 2. The “Soybean plant response rating” value (soybean; [6]) was 3, the “Soybean plant response rating” value (soybean; [7]) was 0 and the “Plant response rating, Soybean” value (soybean; [8]) was 4. The “Bedstraw plant response rating” value (bedstraw; [1]) was 0, the “Bedstraw plant response rating” value (bedstraw; [2]) was 0 and the “Bedstraw plant response rating” value (bedstraw; [3]) was 0. For the same compound, the “Bedstraw plant response rating” value (bedstraw; [4]) was 7, the “Bedstraw plant response rating” value (bedstraw; [5]) was 0 and the “Bedstraw plant response rating” value (bedstraw; [6]) was 3. The “Bedstraw plant response rating” value (bedstraw; [7]) was 4, the “Plant response rating, Bedstraw” value (bedstraw; [8]) was 8 and the “Nutsedge plant response rating” value (purple nutsedge; [1]) was 0. The “Nutsedge plant response rating” value (purple nutsedge; [2]) was 0, the “Nutsedge plant response rating” value (purple nutsedge; [3]) was 0 and the “Nutsedge plant response rating” value (purple nutsedge; [4]) was 0. The “Nutsedge plant response rating” value (purple nutsedge; [5]) was 0, the “Nutsedge plant response rating” value (purple nutsedge; [6]) was 0 and the “Nutsedge plant response rating” value (purple nutsedge; [7]) was 0. For the same compound, the “Plant response rating, Nutsedge” value (purple nutsedge; [8]) was 0, the “Ducksalad plant response rating” value (duck salad; [9]) was 0 and the “Ducksalad plant response rating” value (duck salad; [10]) was 0. The “Ducksalad plant response rating” value (duck salad; [11]) was 0, the “Ducksalad plant response rating” value (duck salad; [12]) was 0 and the “Crabgrass plant response rating” value (crabgrass; [1]) was 0. The “Crabgrass plant response rating” value (crabgrass; [2]) was 1, the “Crabgrass plant response rating” value (crabgrass; [3]) was 2 and the “Crabgrass plant response rating” value (crabgrass; [4]) was 4. The “Crabgrass plant response rating” value (crabgrass; [5]) was 3, the “Crabgrass plant response rating” value (crabgrass; [6]) was 5 and the “Crabgrass plant response rating” value (crabgrass; [7]) was 3. The “Plant response rating, Crabgrass” value (crabgrass; [8]) was 9, the “Rice plant response rating” value (rice; [9]) was 0 and the “Rice plant response rating” value (rice; [10]) was 0. The “Rice plant response rating” value (rice; [11]) was 0, the “Rice plant response rating” value (rice; [12]) was 1 and the “Giant foxtail plant response rating” value (giant foxtail; [1]) was 2. For the same compound, the “Giant foxtail plant response rating” value (giant foxtail; [2]) was 9, the “Giant foxtail plant response rating” value (giant foxtail; [3]) was 10 and the “Giant foxtail plant response rating” value (giant foxtail; [4]) was 10. For the same compound, the “Giant foxtail plant response rating” value (giant foxtail; [5]) was 2, the “Giant foxtail plant response rating” value (giant foxtail; [6]) was 5 and the “Giant foxtail plant response rating” value (giant foxtail; [7]) was 10. For the same compound, the “Plant response rating, Giant foxtail” value (giant foxtail; [8]) was 7, the “Blackgrass plant response rating” value (blackgrass; [1]) was 2 and the “Blackgrass plant response rating” value (blackgrass; [2]) was 6. For the same compound, the “Blackgrass plant response rating” value (blackgrass; [3]) was 8, the “Blackgrass plant response rating” value (blackgrass; [4]) was 9 and the “Blackgrass plant response rating” value (blackgrass; [5]) was 5. The “Blackgrass plant response rating” value (blackgrass; [6]) was 9, the “Blackgrass plant response rating” value (blackgrass; [7]) was 9 and the “Plant response rating, Blackgrass” value (blackgrass; [8]) was 9. For the same compound, the “Corn plant response rating” value (corn; [1]) was 0, the “Corn plant response rating” value (corn; [2]) was 0 and the “Corn plant response rating” value (corn; [3]) was 0. The “Corn plant response rating” value (corn; [4]) was 2, the “Corn plant response rating” value (corn; [5]) was 0 and the “Corn plant response rating” value (corn; [6]) was 0. The “Corn plant response rating” value (corn; [7]) was 0, the “Plant response rating, Corn” value (corn; [8]) was 0 and the “B. signalgrass plant response rating” value (surinam grass; [1]) was 0. For the same compound, the “B. signalgrass plant response rating” value (surinam grass; [2]) was 2, the “B. signalgrass plant response rating” value (surinam grass; [3]) was 7 and the “B. signalgrass plant response rating” value (surinam grass; [4]) was 8. The “B. signalgrass plant response rating” value (surinam grass; [5]) was 0, the “B. signalgrass plant response rating” value (surinam grass; [6]) was 3 and the “B. signalgrass plant response rating” value (surinam grass; [7]) was 7. For the same compound, the “Plant response rating, B. signalgrass” value (surinam grass; [8]) was 3.
